The structures appear in SMILES notation.

One experiment deals with LXRα and/or LXRβ. The experiment is described as follows: Co-transfection assay (LXRE luciferase reporter, CV-1 cells). The experiment is classed as cell-based, human. As to conditions: read-out: activity (IC50 or EC50 for LXR), tested as described in Example 33, isoform not specified. Summed up: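 Luciferase signal measures LXR-RXR transcriptional activation in transiently transfected CV-1 cells carrying human LXRα or LXRβ, RXRα and a single-copy LXRE reporter. Cells were exposed to compound for 20 h at 37 °C with at most 1% DMSO, using 10 μM final for screening. Potency was derived from 4-parameter fits of 8-point, half-log dose curves averaged over ≥3 runs, and efficacy was expressed as % of a reference agonist.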
For the molecule `Cc1cc(-c2cccc(S(C)(=O)=O)c2)ccc1-n1cc(C(C)(C)O)nc1Cc1cccc(Cl)c1Cl` [Example 23, 2-(2-(2,3-dichlorobenzyl)-1-(3-methyl-3′-(methylsulfonyl)biphenyl-4-yl)-1H-imidazol-4-yl)propan-2-ol], the EC50 was less than 1000 nM.
With `CCS(=O)(=O)c1cccc(-c2ccc(-n3cc(C(C)(C)O)nc3C(C)(C)c3cccc(Cl)c3Cl)cc2)c1` [Example 22, 2-(2-(2-(2,3-dichloro-phenyl)propan-2-yl)-1-(3′-(ethylsulfonyl)biphenyl-4-yl)-1H-imidazol-4-yl)propan-2-ol], the EC50 was less than 1000 nM.

The same experiment, now with this note: tested as described in Example 33; IC50 or EC50 for LXRα and/or LXRβ, isoform not specified; read-out: activity (IC50 or EC50 for LXR).
For the molecule `CCS(=O)(=O)c1cccc(-c2ccc(-n3cc(C(C)(C)O)nc3-c3cccc(Cl)c3C)c(Cl)c2)c1` [Example 144, 2-(2-(3-chloro-2-methylphenyl)-1-(3-chloro-3′-(ethylsulfonyl)biphenyl-4-yl)-1H-imidazol-4-yl)propan-2-ol], the IC50 or EC50 (potency, activation or inhibition) was less than 1000 nM.
The same measure, in the same setting: the result for `CCOC(=O)c1cc(-c2ccc(-n3cc(C(C)(C)O)nc3-c3ccccc3C(F)(F)F)cc2)cc(S(C)(=O)=O)c1` [Example 401, ethyl 4′-{4-(1-hydroxy-1-methylethyl)-2-[2-(trifluoro-methyl)phenyl]-1H-imidazol-1-yl}-5-(methylsulfonyl)biphenyl-3-carboxylate] reads 1000 to 10000 nM; that for `CCS(=O)(=O)c1cccc(-c2ccc(-n3cc(C(C)(C)O)nc3-c3cccc(F)c3Cl)c(F)c2)c1` [Example 124, 2-(2-(2-chloro-3-fluorophenyl)-1-(3′-(ethylsulfonyl)-3-fluorobiphenyl-4-yl)-1H-imidazol-4-yl)propan-2-ol], less than 1000 nM; that for `Cc1cc(-c2ccc(-n3cc(C(C)(C)O)nc3-c3c(Cl)cccc3Cl)cc2)cc(S(C)(=O)=O)c1` [Example 106, 2-(2-(2,6-dichlorophenyl)-1-(′3-methyl-5′-(methyl-sulfonyl)biphenyl-4-yl)-1H-imidazol-4-yl)propan-2-ol], 1000 to 10000 nM.
On the same count and under the same terms, the result for `FC(F)(F)c1cn(-c2ccc(Br)cn2)c(-c2ccccc2C(F)(F)F)n1` [Example 368, 5-bromo-2-{4-(trifluoromethyl)-2-[2-(trifluoro-methyl)phenyl]-1H-imidazol-1-yl}pyridine] reads 1000 to 10000 nM.
As to `CS(=O)(=O)c1cccc(-c2ccc(-n3cc(C(F)(F)F)nc3-c3ccccc3C(F)(F)F)cc2)c1` [Example 364, 1-[3′-(methylsulfonyl)biphenyl-4-yl]-4-(trifluoromethyl)-2-[2-(trifluoro-methyl)phenyl]-1H-imidazole], the IC50 or EC50 (potency, activation or inhibition) is less than 1000 nM.
On to `CCS(=O)(=O)c1cccc(-c2cc(C)c(-n3cc(C(C)(C)O)nc3-c3ccccc3Cl)c(Cl)c2)c1` [Example 169, 2-(1-(3-chloro-3′-(ethylsulfonyl)-5-methylbiphenyl-4-yl)-2-(2-chlorophenyl)-1H-imidazol-4-yl)propan-2-ol], for which the IC50 or EC50 (potency, activation or inhibition) was less than 1000 nM.
As to `CCS(=O)(=O)c1cccc(-c2ccc(-n3cc(C(C)(C)O)nc3-c3c(C)cccc3Cl)c(Cl)c2)c1` [Example 154, 2-(1-(3-chloro-3′-(ethyl-sulfonyl)biphenyl-4-yl)-2-(2-chloro-6-methylphenyl)-1H-imidazol-4-yl)propan-2-ol], the IC50 or EC50 (potency, activation or inhibition) is less than 1000 nM.
As for `Cc1c(Cl)cccc1-c1nc(C(C)(C)O)cn1-c1ccc(-c2ccc(CO)c(S(C)(=O)=O)c2)cc1Cl` [Example 160, 2-(2-(3-chloro-2-methylphenyl)-1-(3-chloro-4′-(hydroxymethyl)-3′-(methylsulfonyl)biphenyl-4-yl)-1H-imidazol-4-yl)propan-2-ol], the IC50 or EC50 (potency, activation or inhibition) is less than 1000 nM.
For `CCOC(=O)c1ccc(-c2ccc(-n3cc(C(C)(C)O)nc3-c3c(F)cccc3Cl)c(Cl)c2)cc1S(C)(=O)=O` [Example 165, ethyl 3′-chloro-4′-(2-(2-chloro-6-fluorophenyl)-4-(2-hydroxypropan-2-yl)-1H-imidazol-1-yl)-3-(methyl-sulfonyl)biphenyl-4-carboxylate], the IC50 or EC50 (potency, activation or inhibition) was in the range of 1000 to 10000 nM.
`CC(C)(O)c1cn(-c2ccc(-c3cccc(S(C)(=O)=O)c3)cc2Cl)c(-c2nccc3ccccc23)n1` [Example 33, 2-(1-(3-chloro-3′-(methyl-sulfonyl)biphenyl-4-yl)-2-(isoquinolin-1-yl)-1H-imidazol-4-yl)propan-2-ol]: the IC50 or EC50 (potency, activation or inhibition) was less than 1000 nM.
On the same count and under the same terms, the result for `COc1ccc(-c2ccc(-n3cc(C(C)(C)O)nc3-c3ccccc3C(F)(F)F)cc2)cc1S(C)(=O)=O` [Example 399, 2-{1-[4′-(methyloxy)-3′-(methyl-sulfonyl)biphenyl-4-yl]-2-[2-(trifluoromethyl)phenyl]-1H-imidazol-4-yl}propan-2-ol] reads 1000 to 10000 nM; that for `CCS(=O)(=O)c1cccc(-c2ccc(-n3cc(C(C)(C)O)nc3-c3c(Cl)cccc3Cl)c(Cl)c2)c1` [Example 150, 2-(1-(3-chloro-3′-(ethyl-sulfonyl)biphenyl-4-yl)-2-(2,6-dichlorophenyl)-1H-imidazol-4-yl)propan-2-ol], less than 1000 nM; that for `CNS(=O)(=O)c1cccc(-c2ccc(-n3cc(C(C)(C)O)nc3-c3ccccc3C(F)(F)F)cc2)c1` [Example 344, 4′-{4-(1-hydroxy-1-methylethyl)-2-[2-(trifluoromethyl)phenyl]-1H-imidazol-1-yl}-N-methylbiphenyl-3-sulfonamide], less than 1000 nM.
Still for that read-out and setting: the result for `CC(C)S(=O)(=O)c1cccc(-c2ccc(-n3cc(C(C)(C)O)nc3-c3ccccc3C(F)(F)F)cc2)c1` [Example 413] reads less than 1000 nM.
Turning to `CC(C)(O)c1cn(-c2ccc(-c3ccc(CO)c(S(C)(=O)=O)c3)cc2Cl)c(-c2ccccc2C(F)(F)F)n1` [Example 139, 2-(1-(3-chloro-4′-(hydroxymethyl)-3′-(methylsulfonyl)biphenyl-4-yl)-2-(2-(trifluoromethyl)phenyl)-1H-imidazol-4-yl)propan-2-ol], the IC50 or EC50 (potency, activation or inhibition) was less than 1000 nM.
The same measure, in the same setting: the result for `FC(F)(F)c1cn(-c2ccc(Br)cc2)c(-c2ccccc2C(F)(F)F)n1` [Example 363, 1-(4-bromophenyl)-4-(trifluoromethyl)-2-[2-(trifluoromethyl)phenyl]-1H-imidazole] reads 1000 to 10000 nM; that for `CC(C)(O)c1cn(-c2ccc(-c3cccc(S(C)(=O)=O)c3)cc2Cl)c(C(C)(C)c2cccc(Cl)c2Cl)n1` [Example 451, 2-(1-(3-chloro-3′-(methyl-sulfonyl)biphenyl-4-yl)-2-(2-(2,3-dichlorophenyl)propan-2-yl)-1H-imidazol-4-yl)propan-2-ol], less than 1000 nM; that for `CCS(=O)(=O)c1cccc(-c2ccc(-n3cc(C(=O)NC(C)(C)CO)nc3-c3c(Cl)cccc3Cl)c(Cl)c2)c1` [Example 464, 1-(3-chloro-3′-(ethylsulfonyl)biphenyl-4-yl)-2-(2,6-dichlorophenyl)-N-(1-hydroxy-2-methylpropan-2-yl)-1H-imidazole-4-carboxamide], less than 1000 nM.
Turning to `CCS(=O)(=O)c1cccc(-c2ccc(-c3nc(C(C)(C)O)cn3-c3c(Cl)cccc3Cl)c(C)c2)c1` [Example 58, 2-(1-(2,6-dichlorophenyl)-2-(3′-(ethylsulfonyl)-3-methylbiphenyl-4-yl)-1H-imidazol-4-yl)propan-2-ol], the IC50 or EC50 (potency, activation or inhibition) was less than 1000 nM.

For orientation: EC50 means the concentration needed to bring the measured effect to its halfway point.
